Experimental data from patent US20260000642A1 (Tay Therapeutics Limited, priority 2022, published 2026).
Values joined by “and” are separate entries in the source; they are usually repeats but may differ in a detail not shown here. Identical values can stand only once. “Also recorded” adds a separate entry of the source. Like-named read-outs stand apart in the source and are kept apart here.

How the values were obtained:
[1] = Sprague-Dawley rat pharmacokinetics (IV and PO); format: in vivo; settings: rat, plasma; male Sprague-Dawley rats, PO 5 mg/kg (IV 1 mg/kg), cassette mode, Method 1; read-out: PO F (%)
Method in brief: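 Male Sprague-Dawley rats (2 per arm) dosed in cassette (up to 5 compounds) at 1 mg/kg IV and 5 mg/kg PO, formulated in 5% DMSO/40% PEG-400/55% water. Plasma sampled over time, acetonitrile-precipitated with internal standard, and quantified by LC/MS/MS against matrix-matched standards.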

[2] = Pharmacokinetics of Example 101 in Lewis rats (oral, CIA study); format: in vivo, Lewis rat; settings: day 20, 10 mg/kg, individual test subjects
[3] = Beagle dog PK study 1 (IV and PO, propylene glycol-based formulation); format: in vivo; settings: for concentration at 0.25 h / concentration at 0.5 h / concentration at 1 h / concentration at 2 h / concentration at 4 h / concentration at 8 h / concentration at 24 h: beagle, dog, plasma, po, 5 mg/kg
Experimental: The purpose of this study was to examine the pharmacokinetics of Example 101 in beagle dogs. […] An oral PK study was also undertaken in Lewis rats—see Experimental Method C.
Body weight was recoded prior to dosing, and detailed clinical observations were made prior to dosing and throughout the study, as needed.
Subsequently, 17.320 mL Vitamin E TPGS was added, and the solution was vortexed and sonicated. Then, 51.960 mL water was added, and solution was then heated. […] Subsequently, 39.894 mL Vitamin E TPGS was added, and the solution was vortexed and sonicated. Then, 119.682 mL water was added, and the solution was heated.
Blood samples (˜0.3 mL) were collected according to a schedule (detailed below) by venipuncture of peripheral veins except for the dosing vein, and EDTA-K2 was used as anticoagulant. Within 30 minutes of collection, the samples were centrifuged at approximately 2000× g for 10 minutes at 4° C. to obtain blood plasma. The plasma samples were immediately divided into two aliquots (˜75 μL each), transferred to a cryogenic vial, and stored in a freezer at −75±15° C. prior to analysis.
Blood samples were collected at 0.25, 0.5, 1, 2, 4, 8, and 24 h following the initial dosing (0 h).
The experiments were conducted on a Shimadzu DGU-20A5R and AB API 5500+LC/MS/MS instrument with an Agilent Poroshell EC-C18 4 μm (50×2.1 mm) column. A gradient of 95% water (0.1% formic acid)/95% acetonitrile (0.1% formic acid) was used as the mobile phase. The sample injection volume was 1 μL, and the flow rate was 0.6 mL/min. The gathered data were used for pharmacokinetic calculations using T½, C0, AUClast, AUCinf, MRTinf, CI, Vss, and Number of Points for Regression as parameters.

[4] = Pharmacokinetics of Example 101 in Lewis rats (oral, CIA study); format: in vivo, Lewis rat
Experimental: Blood samples were collected from animals in group 8 on Day 0, and blood samples were collected from group 9 on Day 20. Blood samples from group 8 and group 9 were collected at 0.25, 0.5, 1, 2, 4, 8, 10, 12, 13, and 24-hours following morning administration of their first dose of the compound. The second dose of the compound was administered after the 8-hour collection timepoint. All blood samples were collected at the eye socket and put into tubes containing EDTA-K2 as an anticoagulant and centrifuged at 4° C. at 4,000×g for 5 minutes. Plasma was transferred to a separate tube and stored at −75±15° C. for PK analysis. Pharmacokinetic analyses for Example 101 in Lewis rats were performed as described in Experimental Method B.

[5] = PK study 1, PO 5 mg/kg, Test Animal 1, read-out: Plasma concentration
[6] = PK study 1, PO 5 mg/kg, Test Animal 2, read-out: Plasma concentration
[7] = PK study 1, PO 5 mg/kg, Test Animal 3, read-out: Plasma concentration
[8] = PK study 1, PO 5 mg/kg, read-out: Average plasma concentration, Mean
[9] = day 0, 10 mg/kg, individual test subjects
[10] = day 20, 10 mg/kg, individual test subjects

Compound: CNC(=O)c1[nH]c(C(=O)NC2CCC2)cc1O[C@@H](C)c1ccccc1 [Example 101, N^5-cyclobutyl-N^2-methyl-3-(1-phenylethoxy)-1H-pyrrole-2,5-dicarboxamide]
- bioavailability [1]: 66%
- Plasma concentration at 14 h [2]: 68.5 ng/mL and 159 ng/mL and 185 ng/mL
- AUClast/D, Mean ([3]; PK study 1, IV 1 mg/kg): 1883 (ng · h/mL)/(mg/kg)
- AUC—% Extrap_obs, Mean ([3]; PK study 1, IV 1 mg/kg): 0.73%
- C0, Mean ([3]; PK study 1, IV 1 mg/kg): 1512 ng/mL
- Cl_obs, Mean ([3]; PK study 1, IV 1 mg/kg): 8.84 mL/min/kg
- Vss_obs, Mean ([3]; PK study 1, IV 1 mg/kg): 0.733 L/kg
- Vss_obs ([3]; PK study 1, IV 1 mg/kg, Test Animal 1): 0.734 L/kg
- Vss_obs ([3]; PK study 1, IV 1 mg/kg, Test Animal 2): 0.747 L/kg
- Vss_obs ([3]; PK study 1, IV 1 mg/kg, Test Animal 3): 0.719 L/kg
- AUClast/D, Mean ([3]; PK study 1, PO 5 mg/kg): 830 (ng · h/mL)/(mg/kg)
- AUC—% Extrap_obs, Mean ([3]; PK study 1, PO 5 mg/kg): 0.531%
- F, Mean ([3]; PK study 1, PO 5 mg/kg): 44.0%
- F ([3]; PK study 1, PO 5 mg/kg, Test Animal 1): 48.0%
- AUClast/D ([3]; PK study 1, PO 5 mg/kg, Test Animal 3): 1000 (ng · h/mL)/(mg/kg)
- clinical observations after intravenous administration ([3]; beagle dogs, PK study 1, group 1 (IV), 20% propylene glycol/20% Vitamin E TPGS/60% water, individual animals): Vomitus with solid food and soft feces; also recorded: twitching of hindlimbs; also recorded: Slight twitching and lacrimation
- clinical observations after oral administration ([3]; beagle dogs, PK study 1, group 2 (PO), 20% propylene glycol/20% Vitamin E TPGS/60% water): Loose feces
- time post-administration at which plasma concentrations began to steadily decrease ([3]; beagle dogs, PK study 1, oral administration): approximately 1 h
- tolerability in dog PK studies ([3]; beagle dogs, oral and intravenous): well tolerated
- concentration at 0.25 h [3, 5]: 173 ng/mL
- concentration at 0.25 h [3, 6]: 775 ng/mL
- concentration at 0.25 h [3, 7]: 309 ng/mL
- concentration at 0.25 h [3, 8]: 419 ng/mL
- concentration at 0.5 h [3, 5]: 1480 ng/mL
- concentration at 0.5 h [3, 6]: 1550 ng/mL
- concentration at 0.5 h [3, 7]: 1320 ng/mL
- concentration at 0.5 h [3, 8]: 1450 ng/mL
- concentration at 1 h [3, 5]: 2220 ng/mL
- concentration at 1 h [3, 6]: 1180 ng/mL
- concentration at 1 h [3, 7]: 2240 ng/mL
- concentration at 1 h [3, 8]: 1880 ng/mL
- concentration at 2 h [3, 5]: 1130 ng/mL
- concentration at 2 h [3, 6]: 621 ng/mL
- concentration at 2 h [3, 7]: 1310 ng/mL
- concentration at 2 h [3, 8]: 1020 ng/mL
- concentration at 4 h [3, 5]: 142 ng/mL
- concentration at 4 h [3, 6]: 103 ng/mL
- concentration at 4 h [3, 7]: 254 ng/mL
- concentration at 4 h [3, 8]: 166 ng/mL
- concentration at 8 h [3, 5]: 9.51 ng/mL
- concentration at 8 h [3, 6]: 14.8 ng/mL
- concentration at 8 h [3, 7]: 9.52 ng/mL
- concentration at 8 h [3, 8]: 11.3 ng/mL
- concentration at 24 h [3, 5]: 4.58 ng/mL
- concentration at 24 h [3, 8]: 1.53 ng/mL
- AUClast/D [4, 9]: 820 kg·ng·h/mL/mg and 720 kg·ng·h/mL/mg
- Plasma concentration at 0.25 h [4, 9]: 375 ng/mL and 378 ng/mL and 754 ng/mL
- Plasma concentration at 24 h [4, 9]: 14.3 ng/mL and 35.6 ng/mL and 122 ng/mL
- T1/2 [4, 9]: 2.13 h and 2.54 h and 5.01 h
- Tmax [4, 9]: 10.0 h (2×) and 2.00 h
- AUCInf, Mean ([4]; day 0, 10 mg/kg, mean): 15371 ng·h/mL
- AUClast, Mean ([4]; day 0, 10 mg/kg, mean): 15019 ng·h/mL
- AUClast/D, Mean ([4]; day 0, 10 mg/kg, mean): 751 kg·ng·h/mL/mg
- AUC—% Extrap_obs, Mean ([4]; day 0, 10 mg/kg, mean): 2.29%
- MRTInf_obs, Mean ([4]; day 0, 10 mg/kg, mean): 8.61 h
- AUC—% Extrap_obs [4, 10]: 0.700%
- Cmax [4, 10]: 1660 ng/mL
- Plasma concentration at 8 h [4, 10]: 103 ng/mL and 215 ng/mL and 188 ng/mL
- Plasma concentration at 24 h [4, 10]: 16.7 ng/mL and 20.1 ng/mL and 38.1 ng/mL
- AUClast/D, Mean ([4]; day 20, 10 mg/kg, mean): 528 kg·ng·h/mL/mg
- AUC—% Extrap_obs, Mean ([4]; day 20, 10 mg/kg, mean): 1.11%
- Cmax, Mean ([4]; day 20, 10 mg/kg, mean): 1707 ng/mL
- MRTInf_obs, Mean ([4]; day 20, 10 mg/kg, mean): 6.66 h
